Test results as given in patent US11400107B2, “Cancer treatments” (NuCana plc, priority 2016, dated 2022).
Entries after “also recorded” stand apart in the source; their conditions may differ.

What was measured:
[1] = system: Lin^−/CD34^+/CD38^−/CD123^+ cancer stem cells in KG1a cells; assay: Immunophenotypic quantification of the leukaemic stem cell compartment in KG1a cells; assay type: cell-based, human; conditions: for selectivity against cancer stem cells compared to the parent compound / proportion of cancer stem cells as compared to non-stem cancer cells after treatment / low concentration at which the selective reduction of cancer stem cells was still observed: KG1a cells; for proportion of cancer stem cells as compared to non-stem cancer cells after treatment: 72 h; for selectivity for cancer stem cells as opposed to non-stem cancer cells (summary): summary statement of the description
Experimental: The respective abilities of NUC-1031 and gemcitabine to target CSCs were investigated in the AML cell line KG1a.
KG1a cells were cultured for 72 hours in the presence of a wide range of concentrations of each nucleoside analogue and their respective ProTides. Cells were then harvested and labelled with a cocktail of anti-lineage antibodies (PE-cy7), anti-CD34 (FITC), anti-CD38 (PE) and anti-CD123 (PERCP cy5). The sub-population expressing a leukaemic stem cell (LSC) phenotype were subsequently identified and were expressed as a percentage of all viable cells left in the culture. The percentages of stem cells remaining were then plotted on a dose-response graph and the proportion of cancer stem cells was compared across the various concentrations of ProTides and their respective parent compounds, in order to determine if they preferentially target cancer stem cells.
The data obtained in these experiments were evaluated using one way ANOVA. All data was confirmed as Gaussian or a Gaussian approximation using the omnibus K2 test. LD50 values were calculated from the non-linear regression and line of best-fit analysis of the sigmoidal dose-response curves. All statistical analyses were performed using Graphpad Prism 6.0 software (Graphpad Software Inc., San Diego, Calif.).

[2] = system: primary acute myeloid leukaemia (AML) blasts; assay: In vitro cytotoxicity assay (LD50) in primary acute myeloid leukaemia cells; assay type: cell-based, human; conditions: for LD50: primary AML blasts, 48 h, concentration required to kill 50% of the tumour cells in culture; for potency as compared to the respective parent compound (summary): summary statement of the description
Experimental: ProTide compounds, as defined herein, and the comparator ProTide compound NUC-1031 were assayed for their cytotoxic effects on primary cultures of acute myeloid leukaemia (AML) blasts. LD50 values (the concentration required to kill 50% of the tumour cells in culture) were calculated in respect of the ProTide compounds of the invention, and the parent compounds from which they are derived. […] The LD50 values of the ProTide compounds as defined herein (and their parent compounds) were compared with the comparator ProTide NUC-1031 and its parent compound gemcitabine.
Bone marrow samples were collected in ethylenediaminetetraacetic acid (EDTA) from newly diagnosed, previously untreated, acute myeloid leukaemia (AML) patients. AML blasts were enriched by density gradient centrifugation using Histopaque (Sigma, Poole, UK) and were subsequently maintained in Roswell Park Memorial Institute medium (RPMI) supplemented with 10% foetal bovine serum (FBS). Cells were treated with ProTide compounds (either as encompassed by the present invention, or the comparator ProTide NUC-1031) or with the ProTides' parent compounds at a range of experimental concentrations, and incubated for 48 h. All cultures were maintained at 37° C. in a 5% CO2 humidified atmosphere.
Cells were harvested and labelled with CD34-fluorescein isothiocyanate (FITC) (BD Biosciences, Buckingham, UK) and then resuspended in 200 μl of binding buffer containing 4 μl of annexin V labelled with allophycocyanin (APC) (eBioscience Ltd, Hatfield, UK). Apoptosis was quantified in the CD34^+ AML cells using an Accuri C6 flow cytometer (Becton Dickinson, CA, USA). At least 10,000 events were acquired and data were subsequently analysed using FlowJo software (Tree Star Inc., Ashland, Oreg., USA). All LD50 values (concentration of drug required to kill 50% of cells) were derived from the dose-response curves.

CCOC(=O)[C@H](C)NP(=O)(OC[C@H]1O[C@@H](n2cnc3c(N)nc(F)nc32)[C@H](O)C1O)Oc1cccc2ccccc12 (stereo partly shown) [CPF-544]
selectivity against cancer stem cells compared to the parent compound [1]: comparable | proportion of cancer stem cells as compared to non-stem cancer cells after treatment [1]: significant decrease in the proportion of cancer stem cells | selectivity for cancer stem cells as opposed to non-stem cancer cells (summary) [1]: selectively target for cancer stem cells; also recorded: high selectivity for cancer stem cells

C[C@H](NP(=O)(OC[C@H]1O[C@@H](n2cnc3c(N)nc(Cl)nc32)[C@H](F)C1O)Oc1ccccc1)C(=O)OCc1ccccc1 (stereo partly shown) [CPF-448]
low concentration at which the selective reduction of cancer stem cells was still observed [1]: approximately 6×10^−8 M | selectivity against cancer stem cells compared to the parent compound [1]: greater selectivity | proportion of cancer stem cells as compared to non-stem cancer cells after treatment [1]: reduction in the proportion of cancer stem cells | selectivity for cancer stem cells as opposed to non-stem cancer cells (summary) [1]: selectively target for cancer stem cells; also recorded: high selectivity for cancer stem cells

C[C@H](NP(=O)(Oc1ccccc1)OC1C[C@H](n2cnc3c(N)nc(Cl)nc32)O[C@@H]1CO)C(=O)OCc1ccccc1 (stereo partly shown) [CPF-793]
low concentration at which the selective reduction of cancer stem cells was still observed [1]: approximately 6×10^−8 M | selectivity against cancer stem cells compared to the parent compound [1]: greater selectivity; also recorded: statistically significant | proportion of cancer stem cells as compared to non-stem cancer cells after treatment [1]: reduction in the proportion of cancer stem cells; also recorded: particularly striking | selectivity for cancer stem cells as opposed to non-stem cancer cells (summary) [1]: selectively target for cancer stem cells; also recorded: high selectivity for cancer stem cells

C[C@H](NP(=O)(OC[C@H]1O[C@@H](n2cnc3c(N)nc(Cl)nc32)[C@H](F)C1O)Oc1cccc2ccccc12)C(=O)OCC(C)(C)C (stereo partly shown) [CPF-720]
low concentration at which the selective reduction of cancer stem cells was still observed [1]: approximately 6×10^−8 M | proportion of cancer stem cells as compared to non-stem cancer cells after treatment [1]: reduction in the proportion of cancer stem cells | selectivity for cancer stem cells as opposed to non-stem cancer cells (summary) [1]: selectively target for cancer stem cells

C[C@H](NP(=O)(OC[C@H]1O[C@@H](n2cnc3c(=S)[nH]c(N)nc32)[C@@H](O)C1O)Oc1cccc2ccccc12)C(=O)OCc1ccccc1 (stereo partly shown) [CPF-775]
selectivity against cancer stem cells compared to the parent compound [1]: statistically significant increases in selectivity at certain concentrations | proportion of cancer stem cells as compared to non-stem cancer cells after treatment [1]: strong reduction in the proportion of cancer stem cells | selectivity for cancer stem cells as opposed to non-stem cancer cells (summary) [1]: selectively target for cancer stem cells; also recorded: high selectivity for cancer stem cells

Nc1nc(Cl)nc2c1ncn2[C@@H]1O[C@H](CO)[C@@H](O)[C@@H]1F [Clofarabine]
low concentration at which the selective reduction of cancer stem cells was still observed [1]: approximately 6×10^−8 M | proportion of cancer stem cells as compared to non-stem cancer cells after treatment [1]: reduction in the proportion of cancer stem cells

C[C@H](NP(=O)(OC[C@H]1O[C@@H](n2cc(F)c(=O)[nH]c2=O)CC1O)Oc1cccc2ccccc12)C(=O)OCc1ccccc1 (single isomer, unassigned) [CPF-373 (Iso A)]
low concentration at which the selective reduction of cancer stem cells was still observed [1]: approximately 8×10^−8 M | proportion of cancer stem cells as compared to non-stem cancer cells after treatment [1]: reduction in the proportion of cancer stem cells | selectivity for cancer stem cells as opposed to non-stem cancer cells (summary) [1]: selectively target for cancer stem cells; also recorded: high selectivity for cancer stem cells | LD50 [2]: CPF 373 (Iso A) 0.052 μM | potency as compared to the respective parent compound (summary) [2]: greater potency

C[C@H](NP(=O)(Oc1cccc2ccccc12)OC1C[C@H](n2cnc3c(N)nc(Cl)nc32)O[C@@H]1CO)C(=O)OCc1ccccc1 (stereo partly shown) [CPF-791]
selectivity against cancer stem cells compared to the parent compound [1]: greater selectivity | proportion of cancer stem cells as compared to non-stem cancer cells after treatment [1]: reduction in the proportion of cancer stem cells | selectivity for cancer stem cells as opposed to non-stem cancer cells (summary) [1]: selectively target for cancer stem cells

Nc1ccn([C@@H]2O[C@H](CO)[C@@H](O)C2(F)F)c(=O)n1 [Gemcitabine]
LD50 [2]: Gemcitabine 1.4 μM

C[C@H](NP(=O)(OC[C@H]1O[C@@H](n2cnc3c(N)nc(F)nc32)[C@H](O)C1O)Oc1ccccc1)C(=O)OCc1ccccc1 (stereo partly shown) [CPF-682]
selectivity against cancer stem cells compared to the parent compound [1]: comparable | proportion of cancer stem cells as compared to non-stem cancer cells after treatment [1]: significant decrease in the proportion of cancer stem cells | selectivity for cancer stem cells as opposed to non-stem cancer cells (summary) [1]: selectively target for cancer stem cells; also recorded: high selectivity for cancer stem cells

CCCCCOC(=O)[C@@H](C)NP(=O)(OC[C@H]1O[C@@H](n2cnc3c(N)nc(Cl)nc32)[C@H](F)C1O)Oc1cccc2ccccc12 (stereo partly shown) [CPF-727]
low concentration at which the selective reduction of cancer stem cells was still observed [1]: approximately 6×10^−8 M | proportion of cancer stem cells as compared to non-stem cancer cells after treatment [1]: reduction in the proportion of cancer stem cells | selectivity for cancer stem cells as opposed to non-stem cancer cells (summary) [1]: selectively target for cancer stem cells

C[C@H](NP(=O)(OC[C@H]1O[C@@H](n2cnc3c(=S)[nH]c(N)nc32)[C@@H](O)C1O)Oc1ccccc1)C(=O)OCc1ccccc1 (stereo partly shown) [CPF-782]
selectivity against cancer stem cells compared to the parent compound [1]: most selective; also recorded: statistically significant increases in selectivity at certain concentrations | proportion of cancer stem cells as compared to non-stem cancer cells after treatment [1]: strong reduction in the proportion of cancer stem cells | selectivity for cancer stem cells as opposed to non-stem cancer cells (summary) [1]: selectively target for cancer stem cells; also recorded: high selectivity for cancer stem cells | LD50 [2]: CPF 782 0.82 μM | potency as compared to the respective parent compound (summary) [2]: greater potency

C[C@H](NP(=O)(OC[C@H]1O[C@@H](n2cnc3c(=S)[nH]cnc32)[C@@H](O)C1O)Oc1cccc2ccccc12)C(=O)OCC(C)(C)C (stereo partly shown) [CPF-762]
selectivity against cancer stem cells compared to the parent compound [1]: greater selectivity | proportion of cancer stem cells as compared to non-stem cancer cells after treatment [1]: reduction of the proportion of cancer stem cells | selectivity for cancer stem cells as opposed to non-stem cancer cells (summary) [1]: selectively target for cancer stem cells

C[C@H](NP(=O)(OC[C@H]1O[C@@H](n2cnc3c(=S)[nH]cnc32)[C@@H](O)C1O)Oc1cccc2ccccc12)C(=O)OCc1ccccc1 (stereo partly shown) [CPF-761]
selectivity against cancer stem cells compared to the parent compound [1]: greater selectivity; also recorded: most selective; also recorded: increase in selectivity was statistically significant | proportion of cancer stem cells as compared to non-stem cancer cells after treatment [1]: reduction of the proportion of cancer stem cells | selectivity for cancer stem cells as opposed to non-stem cancer cells (summary) [1]: selectively target for cancer stem cells

C[C@H](NP(=O)(OC[C@H]1O[C@@H](n2cc(F)c(=O)[nH]c2=O)CC1O)Oc1cccc2ccccc12)C(=O)OCc1ccccc1 (stereo partly shown) [CPF-373 (mix)]
LD50 [2]: CPF 373 (mix) 0.053 μM

OC[C@H]1O[C@@H](n2cnc3c(S)ncnc32)[C@H](O)[C@@H]1O [Thioinosine]
proportion of cancer stem cells as compared to non-stem cancer cells after treatment [1]: reduction of the proportion of cancer stem cells

C[C@H](NP(=O)(OC[C@H]1O[C@@H](n2cc(F)c(=O)[nH]c2=O)CC1O)Oc1ccccc1)C(=O)OCc1ccccc1 (stereo partly shown) [CPF-381]
low concentration at which the selective reduction of cancer stem cells was still observed [1]: approximately 8×10^−8 M | proportion of cancer stem cells as compared to non-stem cancer cells after treatment [1]: reduction in the proportion of cancer stem cells | selectivity for cancer stem cells as opposed to non-stem cancer cells (summary) [1]: selectively target for cancer stem cells; also recorded: high selectivity for cancer stem cells | LD50 [2]: CPF 381 0.039 μM | potency as compared to the respective parent compound (summary) [2]: greater potency

Nc1nc(Cl)nc2c1ncn2[C@H]1C[C@H](O)[C@@H](CO)O1 [Cladribine]
proportion of cancer stem cells as compared to non-stem cancer cells after treatment [1]: reduction in the proportion of cancer stem cells

C[C@H](NP(=O)(OC[C@H]1O[C@@H](n2cc(F)c(=O)[nH]c2=O)CC1O)Oc1cccc2ccccc12)C(=O)OCc1ccccc1 (single isomer, unassigned) [CPF-373 (Iso B)]
low concentration at which the selective reduction of cancer stem cells was still observed [1]: approximately 8×10^−8 M | proportion of cancer stem cells as compared to non-stem cancer cells after treatment [1]: reduction in the proportion of cancer stem cells | selectivity for cancer stem cells as opposed to non-stem cancer cells (summary) [1]: selectively target for cancer stem cells; also recorded: high selectivity for cancer stem cells | LD50 [2]: CPF 373 (Iso B) 0.055 μM | potency as compared to the respective parent compound (summary) [2]: greater potency
